These results are taken from patent US20250270200A1, “CTPS1 INHIBITORS AND USES THEREOF” (Nimbus Clotho, Inc., priority 2022, published 2025).

For the assay, the target named is T1, human CTPS1 (Homo sapiens, UniProt P17812).
T1 sequence (P17812 1-591): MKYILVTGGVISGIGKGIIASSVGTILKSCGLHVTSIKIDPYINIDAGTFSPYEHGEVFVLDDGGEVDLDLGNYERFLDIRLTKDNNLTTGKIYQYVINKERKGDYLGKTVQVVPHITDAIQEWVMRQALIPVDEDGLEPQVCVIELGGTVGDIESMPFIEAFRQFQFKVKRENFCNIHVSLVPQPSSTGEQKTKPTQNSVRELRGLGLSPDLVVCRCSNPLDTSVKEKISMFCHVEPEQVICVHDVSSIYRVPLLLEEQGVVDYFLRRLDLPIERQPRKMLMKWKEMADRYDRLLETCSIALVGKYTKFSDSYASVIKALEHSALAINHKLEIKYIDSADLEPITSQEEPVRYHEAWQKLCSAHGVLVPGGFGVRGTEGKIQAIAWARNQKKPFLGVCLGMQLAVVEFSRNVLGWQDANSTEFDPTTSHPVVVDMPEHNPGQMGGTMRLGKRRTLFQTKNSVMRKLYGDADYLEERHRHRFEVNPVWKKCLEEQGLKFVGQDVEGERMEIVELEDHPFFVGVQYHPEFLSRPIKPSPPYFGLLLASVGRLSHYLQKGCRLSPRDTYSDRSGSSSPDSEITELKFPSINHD
Briefly: ADP-Glo assay, human CTPS1 enzyme inhibition. The class given is biochemical. To be noted: wild-type human CTPS1, 25 nM enzyme; ADP-Glo; read-out: ADP-Glo_WT_hCTPS1—25 nM_IC50 (IC50). The method, boiled down: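 Full-length tagged human CTPS1 (25 nM) pre-incubated 10 min at 25° C with compound, then 10 min with ATP (120 μM) and UTP (160 μM); reaction started with L-glutamine (100 μM) and GTP (60 μM), 1% DMSO, in HEPES pH 7.4, 10 mM Mg2+, 5 mM KCl, 2 mM DTT. Run within linear phase at 25° C; ADP measured by ADP-Glo luminescence.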
On the technique in general: In ADP-Glo the light output rises with the ADP produced.

Usually pIC50 stands for the negative decadic logarithm of the IC50, by convention in mol/L.

pIC50: −log10 of the molar value. Where only a bound is given, the exact number is not on record here.

Turning to `CC(C)(O)[C@H](NC(=O)c1ncc(-c2cnn3ccc(Cl)cc23)s1)c1cc(NS(=O)(=O)C2CC2)ccn1` [I-277, (R)-5-(5-chloropyrazolo[1,5-a]pyridin-3-yl)-N-(1-(4-(cyclopropanesulfonamido)pyridin-2-yl)-2-hydroxy-2-methylpropyl)thiazole-2-carboxamide], the pIC50 was 7.00 to 7.30.

`CC(C)(O)[C@@H](NC(=O)c1ncc(-c2cnn3ccc(Cl)cc23)s1)c1cc(NS(=O)(=O)C2CC2)ccn1` [I-278, (S)-5-(5-chloropyrazolo[1,5-a]pyridin-3-yl)-N-(1-(4-(cyclopropanesulfonamido)pyridin-2-yl)-2-hydroxy-2-methylpropyl)thiazole-2-carboxamide]: the pIC50 is 7.00 to 7.30.

`CCOc1cncc(-c2ccc(C(=O)N[C@@H](COC)c3cc(NS(=O)(=O)C4CC4)ccn3)cc2)n1` [I-279, (R)-N-(1-(4-(cyclopropanesulfonamido)pyridin-2-yl)-2-methoxyethyl)-4-(6-ethoxypyrazin-2-yl)benzamide]: the pIC50 was 7.60 to 8.30. Next, `CCOc1cncc(-c2ccc(C(=O)N[C@H](COC)c3cc(NS(=O)(=O)C4CC4)ccn3)cc2)n1` [I-280, (S)-N-(1-(4-(cyclopropanesulfonamido)pyridin-2-yl)-2-methoxyethyl)-4-(6-ethoxypyrazin-2-yl)benzamide]: 7.30 to 7.60; `CCOc1cncc(-c2cnc(C(=O)N[C@@H](COC)c3ccnc(NS(=O)(=O)C4CC4)n3)s2)n1` [I-281, (R)-N-(1-(2-(cyclopropanesulfonamido)pyrimidin-4-yl)-2-methoxyethyl)-5-(6-ethoxypyrazin-2-yl)thiazole-2-carboxamide]: 7.60 to 8.30. Next, `CCOc1cncc(-c2ccc(C(=O)N[C@@H](COC)c3cc(NS(=O)(=O)C4CC4)ccn3)c(F)c2)n1` [I-282, (R)-N-(1-(4-(cyclopropanesulfonamido)pyridin-2-yl)-2-methoxyethyl)-4-(6-ethoxypyrazin-2-yl)-2-fluorobenzamide]: 7.30 to 7.60; `CCOc1cncc(-c2ccc(C(=O)N[C@H](COC)c3cc(NS(=O)(=O)C4CC4)ccn3)c(F)c2)n1` [I-283, (S)-N-(1-(4-(cyclopropanesulfonamido)pyridin-2-yl)-2-methoxyethyl)-4-(6-ethoxypyrazin-2-yl)-2-fluorobenzamide]: 7.00 to 7.30; `COC[C@H](NC(=O)c1ccc(-c2cnn3ccc(Cl)cc23)cc1F)c1cc(NS(=O)(=O)C2CC2)ccn1` [I-284, (R)-4-(5-chloropyrazolo[1,5-a]pyridin-3-yl)-N-(1-(4-(cyclopropanesulfonamido)pyridin-2-yl)-2-methoxyethyl)-2-fluorobenzamide]: < 7.00. Next, `COC[C@@H](NC(=O)c1ccc(-c2cnn3ccc(Cl)cc23)cc1F)c1cc(NS(=O)(=O)C2CC2)ccn1` [I-285, (S)-4-(5-chloropyrazolo[1,5-a]pyridin-3-yl)-N-(1-(4-(cyclopropanesulfonamido)pyridin-2-yl)-2-methoxyethyl)-2-fluorobenzamide]: 7.00 to 7.30; `CCOc1cncc(-c2cnc(C(=O)N[C@H](c3cccc(NS(=O)(=O)C(F)F)c3)[C@@H](C)O)s2)n1` [I-286, N-((1R,2R)-1-(3-((difluoromethyl)sulfonamido)phenyl)-2-hydroxypropyl)-5-(6-ethoxypyrazin-2-yl)thiazole-2-carboxamide]: 7.60 to 8.30; `CCOc1cncc(-c2cnc(C(=O)N[C@@H](c3cccc(NS(=O)(=O)C(F)F)c3)[C@@H](C)O)s2)n1` [I-287, N-((1S,2R)-1-(3-((difluoromethyl)sulfonamido)phenyl)-2-hydroxypropyl)-5-(6-ethoxypyrazin-2-yl)thiazole-2-carboxamide]: 7.60 to 8.30. For the compound `CCOc1cncc(-c2cnc(C(=O)N[C@@H](c3cccc(NS(=O)(=O)C(F)F)c3)[C@H](C)O)s2)n1` [I-288, N-((1S,2S)-1-(3-((difluoromethyl)sulfonamido)phenyl)-2-hydroxypropyl)-5-(6-ethoxypyrazin-2-yl)thiazole-2-carboxamide], the pIC50 is 7.60 to 8.30. Then `CCOc1cncc(-c2cnc(C(=O)N[C@H](c3cccc(NS(=O)(=O)C(F)F)c3)[C@H](C)O)s2)n1` [I-289, N-((1R,2S)-1-(3-((difluoromethyl)sulfonamido)phenyl)-2-hydroxypropyl)-5-(6-ethoxypyrazin-2-yl)thiazole-2-carboxamide], with 7.60 to 8.30; and `CCOc1cncc(-c2cnc(C(=O)N[C@@H](c3cccc(NS(=O)(=O)C(F)F)c3)C(C)(C)O)s2)n1` [I-290, (S)-N-(1-(3-((difluoromethyl)sulfonamido)phenyl)-2-hydroxy-2-methylpropyl)-5-(6-ethoxypyrazin-2-yl)thiazole-2-carboxamide], with 7.60 to 8.30; and `CCOc1cncc(-c2cnc(C(=O)N[C@H](c3cccc(NS(=O)(=O)C(F)F)c3)C(C)(C)O)s2)n1` [I-291, (R)-N-(1-(3-((difluoromethyl)sulfonamido)phenyl)-2-hydroxy-2-methylpropyl)-5-(6-ethoxypyrazin-2-yl)thiazole-2-carboxamide], with 7.60 to 8.30. In the case of `CCOc1cncc(-c2cnc(C(=O)N[C@H](COC)c3cccc(NS(=O)(=O)C(F)F)c3)s2)n1` [I-292, (S)-N-(1-(3-((difluoromethyl)sulfonamido)phenyl)-2-methoxyethyl)-5-(6-ethoxypyrazin-2-yl)thiazole-2-carboxamide], the negative-log IC50 (pIC50) was 7.60 to 8.30. For `CCOc1cncc(-c2cnc(C(=O)N[C@@H](COC)c3cccc(NS(=O)(=O)C(F)F)c3)s2)n1` [I-293, (R)-N-(1-(3-((difluoromethyl)sulfonamido)phenyl)-2-methoxyethyl)-5-(6-ethoxypyrazin-2-yl)thiazole-2-carboxamide], the pIC50 was 7.60 to 8.30.
